Laboratory results as given in ChEMBL document CHEMBL3124770, “Rugulactone derivatives act as inhibitors of NF-κB activation and modulates the transcription of NF-κB dependent genes in MDA-MB-231cells” (Bioorg Med Chem Lett, 2014).
Activity calls are given as the source filed them. The rule behind the calls is not given here.

Columns and labels:
MCF7 [1] = assay: Inhibition of NFkappaB activity in estrogen receptor-positive human MCF7 cells at 2 uM after 24 hrs by SEAP reporter assay; type: cell-based
MDA-MB-231 [2] = assay: Inhibition of NFkappaB activity in estrogen receptor-negative human MDA-MB-231 cells at 2 uM after 24 hrs by SEAP reporter assay; type: cell-based
MCF7 [3] = assay: Cytotoxicity against estrogen receptor-positive human MCF7 cells assessed as cell viability after 72 hrs by MTT assay; type: functional, cell-based; details: MCF7, 72 h
MDA-MB-231 [4] = assay: Cytotoxicity against estrogen receptor-negative human MDA-MB-231 cells assessed as cell viability after 72 hrs by MTT assay; type: functional, cell-based; details: MDA-MB-231, 72 h
MDA-MB-231 [5] = assay: Reduction in HDAC-8 nuclear expression in estrogen receptor-negative human MDA-MB-231 cells at 2 uM after 24 hrs by Western blotting analysis; type: functional, cell-based
MDA-MB-231 [6] = assay: Inhibition of NFkappaB activity in estrogen receptor-negative human MDA-MB-231 cells assessed as retention of NFKappaB/Rel A in cytoplasm at 2 uM after 24 hrs by DAPI/PI staining-based confocal microscopy; type: cell-based
MDA-MB-231 [7] = assay: Reduction in HDAC-3 nuclear expression in estrogen receptor-negative human MDA-MB-231 cells at 2 uM after 24 hrs by Western blotting analysis; type: functional, cell-based
MDA-MB-231 [8] = assay: Effect on p21 gene expression in estrogen receptor-negative human MDA-MB-231 cells at 2 uM after 24 hrs by luciferase reporter gene assay; type: functional, cell-based
MDA-MB-231 [9] = assay: Induction of apoptosis in estrogen receptor-negative human MDA-MB-231 cells assessed as reduced procaspase-3 level at 2 uM after 24 hrs by Western blotting analysis; type: functional, cell-based
MDA-MB-231 [10] = assay: Induction of apoptosis in estrogen receptor-negative human MDA-MB-231 cells assessed as increase in Rb cleavage at 2 uM after 24 hrs by Western blotting analysis; type: functional, cell-based
MDA-MB-231 [11] = assay: Induction of apoptosis in estrogen receptor-negative human MDA-MB-231 cells assessed as increase in PARP cleavage at 2 uM after 24 hrs by Western blotting analysis; type: functional, cell-based
MDA-MB-231 [12] = assay: Cell cycle arrest in estrogen receptor-negative human MDA-MB-231 cells assessed as decrease in CDK2 expression at 2 uM after 24 hrs by Western blotting analysis; type: functional, cell-based
MDA-MB-231 [13] = assay: Cell cycle arrest in estrogen receptor-negative human MDA-MB-231 cells assessed as decrease in Cyclin E expression at 2 uM after 24 hrs by Western blotting analysis; type: functional, cell-based
MDA-MB-231 [14] = assay: Cell cycle arrest in estrogen receptor-negative human MDA-MB-231 cells assessed as accumulation at G2/M phase at 2 uM after 24 hrs by Propidium iodide staining-based flow cytometric analysis (reference value: 26.33 +/- 3.05%); type: functional
MDA-MB-231 [15] = assay: Cell cycle arrest in estrogen receptor-negative human MDA-MB-231 cells assessed as accumulation at S phase at 2 uM after 24 hrs by Propidium iodide staining-based flow cytometric analysis (reference value: 19 +/- 1%); type: functional
MDA-MB-231 [16] = assay: Cell cycle arrest in estrogen receptor-negative human MDA-MB-231 cells assessed as accumulation at G1 phase at 2 uM after 24 hrs by Propidium iodide staining-based flow cytometric analysis (reference value: 54.66 +/- 2.51%); type: functional
MDA-MB-231 [17] = assay: Inhibition of NFkappaB activity in estrogen receptor-negative human MDA-MB-231 cells assessed as reduction of Bcl-xL expression at 2 uM after 24 hrs by Western blotting analysis; type: cell-based
MDA-MB-231 [18] = assay: Inhibition of NFkappaB activity in estrogen receptor-negative human MDA-MB-231 cells assessed as reduction of cyclin D1 expression at 2 uM after 24 hrs by Western blotting analysis; type: cell-based
MDA-MB-231 [19] = assay: Inhibition of NFkappaB activity in estrogen receptor-negative human MDA-MB-231 cells assessed as reduction of p65 expression at 2 uM after 24 hrs by Western blotting analysis; type: cell-based

SMILES	inhibition (MCF7 [1])	inhibition (MDA-MB-231 [2])	IC50 (MCF7 [3]) [µM]	IC50 (MDA-MB-231 [4]) [µM]	other results
O=C(/C=C/C[C@H]1CC=CC(=O)O1)CCc1cccc(Oc2ccccc2)c1	Active	Active	3.36	3.2	–
O=C(/C=C/C[C@@H]1CC=CC(=O)O1)CCc1c[nH]c2ccccc12	Active	Active	5.73	7.08	–
CCCCCCCCCCCCCCCCC/C=C/C(=O)/C=C/C[C@@H]1CC=CC(=O)O1	Active	Active	3.76	4.49	–
CCCCCCCCCCCCCCCCCCCC(=O)/C=C/C[C@@H]1CC=CC(=O)O1	Active	Active	5.57	6.22	–
CCCCCCCCCCCCCCCCCC(=O)/C=C/C[C@H]1CC=CC(=O)O1	Active	Active	4.32	3.93	–
O=C(/C=C/C[C@H]1CC=CC(=O)O1)CCc1ccco1	Active	Active	3.52	3.34	–
CC(=O)/C=C/C[C@@H]1CC=CC(=O)O1	Active	Active	3.36	3.07	Activity (MDA-MB-231 [5]): Active; NF-kappaB activity inhibition (MDA-MB-231 [6]): Active; Activity (MDA-MB-231 [7]): Active; Activity (MDA-MB-231 [8]): inactive; Activity (MDA-MB-231 [9]): Active; Activity (MDA-MB-231 [10]): Active; Activity (MDA-MB-231 [11]): Active; Activity (MDA-MB-231 [12]): Active; Activity (MDA-MB-231 [13]): Active; Activity (MDA-MB-231 [14]): 26%; Activity (MDA-MB-231 [15]): 6%; Activity (MDA-MB-231 [16]): 68%
O=C(/C=C/C[C@@H]1CC=CC(=O)O1)CCc1cccc(Oc2ccccc2)c1	Active	Active	4.56	4.91	–
O=C(/C=C/C[C@H]1CC=CC(=O)O1)CCc1ccc2ccccc2c1	Active	Active	4.48	3.64	–
O=C(/C=C/C[C@@H]1CC=CC(=O)O1)CCc1ccc2ccccc2c1	Active	Active	4.72	4.74	–
CCCCCCCC/C=C\CCCCCCCC(=O)/C=C/C[C@H]1CC=CC(=O)O1	Active	Active	2.7	2.96	Activity (MDA-MB-231 [5]): Active; NF-kappaB activity inhibition (MDA-MB-231 [6]): Active; Activity (MDA-MB-231 [7]): Active; inhibition (MDA-MB-231 [17]): Active; inhibition (MDA-MB-231 [18]): Active; inhibition (MDA-MB-231 [19]): Active; Activity (MDA-MB-231 [8]): inactive; Activity (MDA-MB-231 [14]): 21.3%; Activity (MDA-MB-231 [15]): 8%; Activity (MDA-MB-231 [16]): 70.6%
O=C(/C=C/C[C@@H]1CC=CC(=O)O1)CCc1cccc(O)c1	Active	Active	5.12	6.18	–
O=C(/C=C/C[C@H]1CC=CC(=O)O1)CCc1ccc2c(c1)OCO2	Active	Active	3.31	3.09	–
O=C(/C=C/C[C@H]1CC=CC(=O)O1)CCc1c[nH]c2ccccc12	Active	Active	3.91	3.98	–
CCCCCCCCCCCCCCCCCCCC(=O)/C=C/C[C@H]1CC=CC(=O)O1	Active	Active	3.12	3.58	–
CCCCCCCCCCCCCCCC(=O)/C=C/C[C@@H]1CC=CC(=O)O1	Active	Active	3.96	4.11	–
CCCCCCCCCCCC(=O)/C=C/C[C@@H]1CC=CC(=O)O1	Active	Active	4.56	5.42	–
CCCCCCCCCCCCCCCC(=O)/C=C/C[C@H]1CC=CC(=O)O1	Active	Active	3.79	3.98	–
O=C(/C=C/C[C@@H]1CC=CC(=O)O1)CCc1ccco1	Active	Active	4.37	3.37	–
O=C(/C=C/C[C@H]1CC=CC(=O)O1)CCc1cccc(O)c1	Active	Active	4.32	6.68	–
O=C(/C=C/C[C@@H]1CC=CC(=O)O1)CCc1ccccc1 [R-RUGULACTONE]	Active	Active	3.59	3.44	Activity (MDA-MB-231 [5]): Active; NF-kappaB activity inhibition (MDA-MB-231 [6]): Active; Activity (MDA-MB-231 [7]): Active; Activity (MDA-MB-231 [8]): inactive; Activity (MDA-MB-231 [9]): Active; Activity (MDA-MB-231 [10]): Active; Activity (MDA-MB-231 [11]): Active; Activity (MDA-MB-231 [12]): Active; Activity (MDA-MB-231 [13]): Active; Activity (MDA-MB-231 [14]): 21.66%; Activity (MDA-MB-231 [15]): 8.33%; Activity (MDA-MB-231 [16]): 70%
CCCCCCCCCCCCCCCCC/C=C/C(=O)/C=C/C[C@H]1CC=CC(=O)O1	Active	Active	3.04	2.87	Activity (MDA-MB-231 [5]): Active; NF-kappaB activity inhibition (MDA-MB-231 [6]): Active; Activity (MDA-MB-231 [7]): Active; inhibition (MDA-MB-231 [17]): Active; inhibition (MDA-MB-231 [18]): Active; inhibition (MDA-MB-231 [19]): Active; Activity (MDA-MB-231 [8]): inactive; Activity (MDA-MB-231 [14]): 19.3%; Activity (MDA-MB-231 [15]): 8%; Activity (MDA-MB-231 [16]): 72.6%
O=C(/C=C/C[C@@H]1CC=CC(=O)O1)CCc1ccc2c(c1)OCO2	Active	Active	6.56	7.93	–
CCCCCCCC/C=C\CCCCCCCC(=O)/C=C/C[C@@H]1CC=CC(=O)O1	Active	Active	5.12	5.54	–
CCCCCCCCCCCC(=O)/C=C/C[C@H]1CC=CC(=O)O1	Active	Active	4	3.16	–
